{"source": "patent US9616065B2", "about": "“Compositions useful in treating brain-related diseases or disorders and methods using same” (priority 2013, dated 2017)", "key": {"[1]": {"biological_target": "T1, SERT (Homo sapiens, UniProt P31645)", "T1 construct": "The templates were full-length and nontagged human SERT in pcdna3.1; expressed in transfected cells; host or cells: COS-7, HEK293 or MDCK (uptake); COS-7 (efflux)", "test": "[3H]-serotonin uptake after preincubation with modulator", "assay_type": "cell-based", "conditions": "for effect on Vmax of serotonin uptake: serotonin uptake kinetics", "experimental": "(§1) COS-7, HEK293, and MDCK cells were maintained in Dulbecco modified Eagle medium (3.5 g/l glucose) supplemented with FBS (10% each) at 37° C. with 5% CO2. Uptake experiments were performed 2 days after transfecting DNAs (hSERT, human dopamine transporter [hDAT], chimeras or mutants, or empty vector for background) with TransIT-LT1 (Minis Bio LLC, Madison, Wis., USA) transfection reagent and plating the cells in 24- or 96-well plates.\n(§2) The uptake was allowed to continue for 10 min at room temperature and was terminated by washing with PBS-CM. […] Vmax and KM are given as mean±S.D. of three independent experiments. […] EC50 values are given as mean±S.E.M. of at least five independent experiments. Statistical significance between vehicle and drug treatments was assessed using Student t-test or one-way analysis of variance (ANOVA) Dunnett's multiple-comparison test (p<0.05)."}, "[2]": {"biological_target": "T2, hDAT (Homo sapiens, UniProt Q01959)", "T2 construct": "expressed in transfected cells; host or cells: COS-7, HEK293 or MDCK", "test": "[3H]-dopamine uptake after preincubation with modulator", "assay_type": "cell-based", "experimental": "as §1, §2"}, "[3]": {"biological_target": "T3, hSERT wild-type (Homo sapiens, UniProt P31645)", "T3 construct": "The templates were full-length and nontagged human SERT in pcdna3.1; expressed in transfected cells; host or cells: COS-7 (efflux)", "test": "Basal/leak [3H]-serotonin efflux in COS-7 cells, wild-type", "assay_type": "cell-based", "conditions": "no extracellular substrate, read-out: IC50 inhibition of basal/leak efflux", "experimental": "(§3) COS-7 cells were maintained under the same conditions as above. Efflux experiments were performed 2 days after cell transfection with hSERT or empty vector and plating of the cells in 24-well plates. Cells were washed with room temperature PBS-CM and then loaded with 50 nM [^3H]-serotonin for 1 h. After preloading, cells were washed twice with buffer and then incubated for 10 min with or without substrates at room temperature. After incubation, the supernatant was collected, liquid scintillation fluid added, and the samples counted (Beckman LS-6500 Multi-purpose Scintillation Counter; Beckman Coulter, Brea, Calif.). The cells were solubilized in a solution of 0.1% sodium dodecyl sulfate and 0.1 M NaOH; liquid scintillation fluid was added and tubes were counted as above. All assays were done in quadruplicate.\n(§4) The percentage of [^3H]-serotonin efflux among different treatments was calculated by adding counts of supernatant plus cell lysis, with the supernatant counts then divided by the total and multiplied by 100 to yield the percentage of efflux."}, "[4]": {"biological_target": "T4, hSERT 112C mutant (Homo sapiens, UniProt P31645, N112C)", "T4 construct": "The templates were full-length and nontagged human SERT in pcdna3.1; expressed in transfected cells; host or cells: COS-7 (efflux); COS-7, HEK293 or MDCK (uptake)", "test": "Basal/leak [3H]-serotonin efflux in COS-7 cells, 112C mutant", "assay_type": "cell-based", "experimental": "as §3, §4"}, "[5]": {"biological_target": "paroxetine binding sites (Homo sapiens, UniProt P31645)", "test": "Paroxetine binding"}, "[6]": {"biological_target": "wild-type human SERT (Homo sapiens, UniProt P31645)", "test": "MDMA-elicited [3H]-serotonin efflux in COS-7 cells, wild-type", "assay_type": "cell-based", "parameters": "The templates were full-length and nontagged human SERT in pcdna3.1; expressed in transfected cells; host or cells: COS-7 (efflux)", "conditions": "for effect on MDMA-elicited efflux: 1 μM modulator", "experimental": "as §3, §4"}, "[7]": {"biological_target": "T5, hSERT 112C mutant (N112C) (Homo sapiens, UniProt P31645, N112C)", "T5 construct": "The templates were full-length and nontagged human SERT in pcdna3.1; expressed in transfected cells; host or cells: COS-7 (efflux)", "test": "MDMA-elicited [3H]-serotonin efflux in COS-7 cells, 112C mutant", "assay_type": "cell-based", "conditions": "for effect on MDMA-elicited efflux: 112C (N112C) mutant, 1 μM modulator", "experimental": "as §3, §4"}, "[8]": {"biological_target": "T1, SERT", "test": "cell-based", "experimental": "as §1, §2"}, "[9]": {"tested_on": "mSERT mutant YETQ-L563V", "test": "Substrate-elicited efflux, mSERT mutant YETQ-L563V", "assay_type": "cell-based, mouse", "conditions": "up to highest testable concentration", "experimental": "Efflux is terminated by collecting the supernatant. Both cells and supernatant are counted by liquid scintillation counting. Efflux is calculated as ratio of supernatant over supernatant and cells."}, "[10]": {"biological_target": "SmSERT (Schistosoma mansoni, UniProt Q3I1M7)", "sequence (Q3I1M7 entry or part of it)": "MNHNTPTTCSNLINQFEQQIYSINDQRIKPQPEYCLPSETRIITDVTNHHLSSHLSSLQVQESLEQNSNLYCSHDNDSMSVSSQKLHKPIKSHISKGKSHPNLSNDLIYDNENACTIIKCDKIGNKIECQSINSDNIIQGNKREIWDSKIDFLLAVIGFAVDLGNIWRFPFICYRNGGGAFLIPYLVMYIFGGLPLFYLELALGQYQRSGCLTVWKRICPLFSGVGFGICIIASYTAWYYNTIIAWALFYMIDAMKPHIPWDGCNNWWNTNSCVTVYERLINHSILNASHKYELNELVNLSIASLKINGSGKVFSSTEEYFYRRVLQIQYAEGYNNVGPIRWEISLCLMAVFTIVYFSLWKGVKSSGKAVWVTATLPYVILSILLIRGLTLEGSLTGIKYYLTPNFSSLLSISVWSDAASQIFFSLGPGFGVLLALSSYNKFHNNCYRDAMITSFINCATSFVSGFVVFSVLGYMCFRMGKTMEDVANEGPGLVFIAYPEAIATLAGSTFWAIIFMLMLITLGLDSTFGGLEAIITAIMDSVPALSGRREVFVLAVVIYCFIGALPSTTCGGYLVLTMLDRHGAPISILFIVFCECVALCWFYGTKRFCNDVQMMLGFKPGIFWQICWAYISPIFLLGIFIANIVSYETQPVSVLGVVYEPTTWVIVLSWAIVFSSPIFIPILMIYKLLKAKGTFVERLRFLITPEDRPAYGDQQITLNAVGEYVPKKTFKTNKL", "test": "Transport inhibition constants, SmSERT", "assay_type": "cell-based"}, "[11]": {"biological_target": "T1, SERT", "test": "SERT-mediated serotonin uptake inhibition by SSRIs in presence of modulator", "assay_type": "cell-based", "conditions": "effect weaker than with citalopram", "experimental": "as §1, with “plates. The media was removed and the cells were washed with PBS (137 mM NaCl, 2.7 mM KCl, 4.3 mM Na2HPO4, 1.4 mM KH2PO4, pH 7.4) containing 0.1 mM CaCl2, 1 mM MgCl2, 10 μM clorgyline, 10 μM pargyline, 5 μM RO 41-0960, and 100 μM ascorbic acid (PBS-CM).” for “plates.”\nMutants are functionally tested in transfected COS-7 cells. Based on the success of the approach that identified the A1 site, the critical residues identified elsewhere herein are tested for changes in uptake kinetics and amphetamine-mediated efflux. Following this initial screen, residues displaying altered activity are tested further in uptake inhibition and ligand displacement assays. […] Following uptake, cells are washed and radioactivity is counted using liquid scintillation counting. […] Apparent Km and Vmax are determined using nonlinear regression analysis. The interaction of WT and mutant MAT with psychostimulants and transporter inhibitors is assessed using uptake inhibition assays. […]"}, "[12]": {"biological_target": "T6, SERT E493D mutant (Homo sapiens, UniProt P31645, E493D)", "T6 construct": "The templates were full-length and nontagged human SERT in pcdna3.1; expressed in transfected cells; host or cells: COS-7", "test": "SERT function with mutated extracellular gate", "assay_type": "cell-based"}}, "note": "Entries after “also recorded” stand apart in the source; their conditions may differ. Where two headings read alike, the source gives them in different places.", "data": [{"smiles": "CN(C)c1ccc(C(C(=O)NCc2ccccc2)N(Cc2cccnc2)C(=O)c2snc(C(N)=O)c2N)cc1", "note": "(stereo not drawn) [ATM7, 4-amino-N^5-{2-(benzylamino)-1-[4-(dimethylamino)phenyl]-2-oxoethyl}-N^5-(3-pyridinylmethyl)-1,2-thiazole-3,5-dicarboxamide]", "values": [{"measurement": "effect on SERT uptake activity / specificity", "setting": "[1]", "result": "activated serotonin uptake very potently at nanomolar concentrations"}, {"measurement": "shape of concentration response on transporter uptake", "setting": "[1]", "result": "bell-shaped response"}, {"measurement": "activation of serotonin uptake", "setting": "[1]; dose-response assay", "result": "up to 50%"}, {"measurement": "shape of concentration response on transporter uptake", "setting": "[1]; listed as KM-986", "result": "biphasic mode of action, enhancing transporter activity at low concentrations and inhibiting transporter function at higher concentrations"}, {"measurement": "effect on Vmax of serotonin uptake", "setting": "[1]", "result": "did not affect Vmax; also recorded: no effect"}, {"measurement": "effect on Vmax of serotonin uptake", "setting": "[1]; listed as KM-986", "result": "do not observe any effect; also recorded: no effect"}, {"measurement": "effect on hSERT uptake at low and high substrate concentration", "setting": "[1]; substrate 25 and 100 nM", "result": "displayed activity only at low concentrations"}, {"measurement": "effect on DAT uptake activity / specificity", "setting": "[2]", "result": "also DAT activity at higher concentrations"}, {"measurement": "IC50", "setting": "[3]", "result": "0.00063 ± 0.00031", "unit": "µM"}, {"measurement": "IC50", "setting": "[4]", "result": "0.037 ± 0.025", "unit": "µM"}, {"measurement": "effect on paroxetine binding sites", "setting": "[5]", "result": "decreased"}, {"measurement": "effect on affinity for MDMA", "setting": "[6]; 1 μM ATM7", "result": "not affected"}, {"measurement": "efficacy of MDMA in eliciting release of intracellular serotonin in the presence of ATM7", "setting": "[6]; 1 μM ATM7, vehicle treated 380%±10%", "result": "510%±17%"}, {"measurement": "effect on MDMA-elicited efflux", "setting": "[6]", "result": "enhanced MDMA-elicited efflux"}, {"measurement": "effect on MDMA-elicited efflux", "setting": "[6]; listed as KM-986", "result": "potentiates MDMA-elicited efflux"}, {"measurement": "efficacy of MDMA in eliciting release of intracellular serotonin in the presence of ATM7", "setting": "[7]; 1 μM ATM7, 112C mutant, vehicle treated 365%±40%", "result": "375%±45%"}, {"measurement": "effect on MDMA-elicited efflux", "setting": "[7]", "result": "had no effect on MDMA-elicited efflux"}, {"measurement": "effect on MDMA-elicited efflux", "setting": "[7]; listed as KM-986", "result": "does not show KM-986-mediated potentiation of MDMA-elicited efflux"}]}, {"smiles": "CNC(C)Cc1ccc2c(c1)OCO2", "note": "(racemic) [(±)MDMA, methylenedioxy-methamphetamine]", "values": [{"measurement": "Ki", "setting": "[8]", "result": "2.7 ± 0.5", "unit": "µM"}, {"measurement": "reversal of transport (efflux)", "setting": "[9]", "result": "did not elicit any significant reversal of transport"}, {"measurement": "Ki", "setting": "[10]", "result": "313 ± 159", "unit": "µM"}, {"measurement": "affinity for MDMA of mutant versus wild-type", "setting": "[7]; N112C, dose-response experiment with MDMA", "result": "reduced by fivefold"}]}, {"smiles": "Cc1cc2nc(-c3ccc(SCC(=O)Nc4ccc(S(=O)(=O)NC5CC5)cc4)nc3)[nH]c2cc1C", "note": "[ATM1, N-[4-(cyclopropylsulfamoyl)phenyl]-2-{[5-(5,6-dimethyl-1H-benzimidazol-2-yl)-2-pyridinyl]sulfanyl}acetamide]", "values": [{"measurement": "effect on SERT uptake activity / specificity", "setting": "[1]", "result": "SERT-specific inhibitor"}, {"measurement": "mechanism of SERT inhibition", "setting": "[1]; Vmax and KM", "result": "non-competitive mechanism"}, {"measurement": "effect on SERT uptake activity / specificity", "setting": "[1]; listed as KM-456", "result": "specific for SERT"}, {"measurement": "effect on affinity of fluoxetine for SERT", "setting": "[11]", "result": "decreasing their affinity for SERT"}, {"measurement": "effect on SERT function", "setting": "[12]", "result": "not affected"}]}]}
